Experiment [1] has as its system GLI1. Kind of experiment: Localization of Gli1 by immunofluorescent staining in SKOV3 cells. It counts as cell-based. To be noted: SKOV3, 24 hours treatment. As for the experimental part: Considering intranuclear Gli1 confers an activated Hh pathway, SKOV3 cells were evaluated for Gli1 location after BMS-833923 treatment and compared to control (no treatment). Cells were grown on Poly-L-Lysine coated Glass Coverslips (BD Bioscience) for overnight, then incubated with 5 μM BMS-833923 for 24 hours, respectively, fixed in 4% paraformaldehyde for 15 minutes at room temperature, washed with PBS and permeabilized with 0.25% Triton X-100 (Sigma) for 10 minutes. Primary antibody (Anti-human Gli1 antibody, Santa Cruz Biotechnology, Inc.) incubation followed for overnight at 4° C. After washing thoroughly with PBS, cells were further probed with secondary antibody (anti-rabbit IgG-FITC, Sigma) for one hour at room temperature. Nuclei were counterstained with diluted DAPI (Sigma) for 3 minutes before mounting and analyzing with microscope.
SKOV3 cells were treated with 2.5 μBMS-833923 and the cellular location of Gli1 determined at various times using immunofluorescence. Immunofluorescence analysis was performed as described above. In untreated control cell, Gli1 is concentrated in the nucleus at 24 hrs, indicating an activated Hh pathway. […] Both indicating restriction of Gli1 from the nucleus and inhibition of Hh pathway.

Experiment [2] deals with TOV112D cells. Put plainly: MTS IC50 dosage calculation with BMS-833923. It counts as cell-based. The conditions noted are these: Homo sapiens; TOV112D monolayer, MTS up to 72 hrs. As for the experimental part:
(§1) Ovarian cancer cells were seeded at a density of 4,000 cells/well in 96 well plates. The following day, fresh medium was added to each well and they were treated with BMS-833923 at a dose-escalation at the following doses 0, 0.1, 0.25, 0.5, 1, 2, 5, 10, and 20 μM. These cells were kept at 37° C. in a humidified 5% CO2 atmosphere. Every 24 hours, 20 μl/well of MTS reagent were added in 96 well plates and stored in 37° C. incubator for at least 3 hours followed by absorbance reading at 490 nm. The assay was carried out up to 72 hrs to obtain the IC50 concentrations of each agent.
(§2) IC50 dosage determinations were performed as described above. […] BMS-833923 IC50 doses were used for all related experiments for specific ovarian cancer cell lines.

For experiment [3], the system named is SKOV3 cells. Kind of experiment: MTS IC50 dosage calculation with BMS-833923. It counts as cell-based. To be noted: Homo sapiens, SK-OV-3; SKOV3 monolayer, MTS up to 72 hrs. As for the experimental part: as §1, §2
The subject of experiment [4] is OV90 cells. Put plainly: MTS IC50 dosage calculation with BMS-833923. It is filed as cell-based. The conditions noted are these: Homo sapiens, OV-90; OV90 monolayer, MTS up to 72 hrs. As to the method:
as §1, §2

Experiment [5] concerns ES2 cells. Put plainly: MTS IC50 dosage calculation with BMS-833923. It is filed as cell-based. The conditions noted are these: Homo sapiens, ES-2; ES2 monolayer, MTS up to 72 hrs. As to the method:
as §1, §2

The test system of experiment [6] is SKOV3 cells. Put plainly: MTS cell survival with BMS-833923 plus chemotherapy, Calcusyn combination index. It is filed as cell-based. As for the experimental part:
An MTS in vitro assay was performed using chemotherapy agents commonly used for ovarian cancer (carboplatin, paclitaxel, gemcitabine, topotecan and liposomal doxorubicin) with or without BMS-833923. Ovarian cancer cells ES2, SKOV3, OV90 and TOV112D were seeded at a density of 4,000 cells/well in 96-well tissue culture plates. The following day, fresh medium was added to each well and treated with IC50 concentrations of BMS-833923 as well as the aforementioned chemotherapies and kept at 37° C. in a humidified 5% CO2 atmosphere. Every 24 hr, 20 μl/well of MTS reagent were added in 96 well plates and stored in 37° C. incubator for about 3 hr followed by absorbance reading at 490 nm. The assay was carried out up to 72 hrs at various concentrations described herein.
With a cross-diagonal multidrug treatment design, the combination index (CI) was calculated to determine mathematical synergy using the median effect method per Calcusyn software (Biosoft, Ferguson, Mo.). This software utilizes multiple drug dose-effect calculations using the Median Effect methods (Chou T. C., et al., Trends Pharmacol. Sci. 4, 450-454). […] The fraction of cells affected (Fa) by carboplatin and BMS-833923 was used to calculate dose response curves and the CI. Statistically Calcusyn quantifies phenomena such as synergism vs. additive effects as well as inhibition (antagonism). Calcusyn software defines synergy as a CI value<1 with the extent of synergism stratified as follows: Possible Synergy: 1.0-0.91; Moderate Synergy: […]; and Clear Synergy: 0.7-0.3. A CI=1 may be indicative of additivity; a CI>1 may be indicative of antagonism.
Combination indices were calculated to determine mathematical synergy using the median effect method per Calcusyn software (Biosoft, Ferguson, Mo.) as described above. Monolayers of SKOV3 cells were contacted with various chemotherapeutic agents, and BMS-833923 in combination with various chemotherapeutic agents. The chemotherapeutic agents included Carboplatin, Taxol™, Gemzar™, Topotecan (Hycamtim™), and Doxil™. The percentage survival of the contacted SKOV3 cells was measured over 72 hours. Synergistic effects were calculated statistically using Calcusyn™ Software. A combination index (CI) less than 1 indicates synergy; a CI equal to 1 indicates additivity; a CI greater than 1 indicated antagonism.
Combination indices were calculated to determine mathematical synergy using the median effect method per Calcusyn software (Biosoft, Ferguson, Mo.) as described above. […] Per prior definitions this represents Clear Synergy defined as CI<0.7. This level of synergy would result in a 2- to 14-fold reduction of carboplatin dose required with the addition of BMS-833923. (Table 5 and FIG. 9).
The dose reduction index (DRI) was determined for experimental values using the Calcusyn software package, with the relative CI and the fraction affected to determine the relative reduction in a dose to achieve similar effects with a single agent (Table 6).

Experiment [7] has as its system A2780 xenografts. Put plainly: Xenograft tumor growth, carboplatin-sensitive model. It counts as in vivo. The conditions noted are these: SCID mice; BMS-833923 100 mg/kg i.p. daily, Carboplatin 40 mg/kg i.p. twice a week, two weeks. As for the experimental part: Female SCID mice 6-8 weeks old were inoculated i.p. with 5×10^6 A2780 or A2780/CP70 cells suspended in 200 μL PBS (PH 7.4). Seven days later when the tumor reached a size of greater than 150 mm^3, the mice were randomly divided into 4 groups (8 mice per group) as follows: (1) PBS-treated control; (2) BMS-833923 alone (100 mg/kg, i.p. daily, two weeks); (3) Carboplatin alone (40 mg/kg, i.p. twice a week, two weeks); (4) Combination of BMS-833923 and Carboplatin treatment. Mice were weighed and tumor diameters were measured with calipers every 2-3 days for 20 days. The tumor volumes (mm^3) were calculated as (W^2×L)/2, where W and L are the minor and major diameters (in millimeters), respectively.
Xenograft experiments were performed as described above. Carboplatin was dosed days 7, 11, 14, 18; BMS-833923 was dosed days 8 through 20. The experiment was terminated due to excessive tumor size in vehicle and BMS-833923 treatment groups.

pIC50: −log10 of the molar value. Entries after “also recorded” stand apart in the source; their conditions may differ.

For orientation: pIC50 means the negative decadic logarithm of the IC50, by convention in mol/L.

Take `CNCc1ccc(C)c(NC(=O)c2ccc(Nc3nc(-c4ccccc4)c4ccccc4n3)cc2)c1` [BMS-833923, N-{2-methyl-5-[(methylamino)methyl]phenyl}-4-[(4-phenylquinazolin-2-yl)amino]benzamide]: the “cellular location of Gli1” value in experiment [1] is “near complete exclusion of intranuclear GLl1; also recorded: Gli1 being excluded from the nucleus”. The pIC50 in experiment [2] was 5.30; in experiment [3] it was 5.12; in experiment [4] it was 5.40; in experiment [5], 5.40. For the same molecule, the “BMS-833923 DRI” value is on record as 2.314 in experiment [6] (fraction affected 16.6%), 3.223 in experiment [6] (fraction affected 29.1%), 3.120 in experiment [6] (fraction affected 38.4%) and 3.330 in experiment [6] (fraction affected 41.8%). In addition, the “BMS-833923 single agent dose to achieve the fraction affected” value was 9.2573 µM in experiment [6] (fraction affected 16.6%), 12.8916 µM in experiment [6] (fraction affected 29.1%), 15.6024 µM in experiment [6] (fraction affected 38.4%) and 16.6516 µM in experiment [6] (fraction affected 41.8%). Further, the “effect on growth of A2780 xenografts in vivo” value in experiment [7] was “little effect”.
